The OPERA property sets (Mansouri et al. 2018)

Conditions: not given

Question: With `CC(=O)CC(C)(C)N` as the compound, how does the boiling point read?
Answer: 180 °C

Question: What about the log10 vapour pressure (mmHg) of the same compound?
Answer: -0.699

Question: Which boiling point does the source give for `CNCc1ccco1` here?
Answer: 149 °C

Question: For `O=C(c1ccccc1)c1cccs1`, which boiling point is on record?
Answer: 300 °C

Question: What about the melting point of the same compound?
Answer: 56.5 °C

Question: Which boiling point does the source give for `CN(C)CCCN(C)C` here?
Answer: 144 °C

Question: With `CC(C)C[Si](Cl)(Cl)Cl` as the compound, how does the boiling point read?
Answer: 143 °C

Question: For `FC(F)(F)C(Cl)Cl`, which boiling point is on record?
Answer: 27 °C

Question: What about the log10 Henry constant (atm·m³/mol) of the same compound?
Answer: -1.59

Question: And the log10 vapour pressure (mmHg)?
Answer: 2.86

Question: And the melting point?
Answer: -107 °C

Question: What about the ready biodegradability of the same compound?
Answer: not readily biodegradable

Question: What does the source list for `Cc1cc(Cl)ccc1Cl`?
Answer: boiling point: 200 °C; melting point: 5 °C

Question: For `Cc1ccc(C(C)c2ccc(C)cc2)cc1`, which boiling point is on record?
Answer: 298 °C

Question: Which boiling point does the source give for `BrCCBr` here?
Answer: 132 °C

Question: And the log10 Henry constant (atm·m³/mol)?
Answer: -3.19

Question: And the log10 Koc (L/kg)?
Answer: 1.71

Question: What about the log10 vapour pressure (mmHg) of the same compound?
Answer: 1.05

Question: What about the melting point of the same compound?
Answer: 9.9 °C

Question: And the ready biodegradability?
Answer: not readily biodegradable

Question: For `CCCCCCCC=CC=O`, which boiling point is on record?
Answer: 230 °C

Question: Which boiling point does the source give for `CCCCCCCCO` here?
Answer: 195 °C

Question: What about the log10 Henry constant (atm·m³/mol) of the same compound?
Answer: -4.61

Question: And the log10 Koa?
Answer: 6.03

Question: And the log10 Koc (L/kg)?
Answer: 1.56

Question: And the log10 vapour pressure (mmHg)?
Answer: -1.1

Question: What about the melting point of the same compound?
Answer: -15.5 °C

Question: And the ready biodegradability?
Answer: readily biodegradable

Question: Which boiling point does the source give for `c1ccc(-n2ccnc2)cc1` here?
Answer: 276 °C

Question: What about the melting point of the same compound?
Answer: 13 °C

Question: With `CCCC(=O)CCC` as the compound, how does the boiling point read?
Answer: 144 °C

Question: And the log10 vapour pressure (mmHg)?
Answer: 0.787

Question: And the melting point?
Answer: -33 °C

Question: For `CCC(C)(Br)CC`, which boiling point is on record?
Answer: 130 °C

Question: Which boiling point does the source give for `CC(C)=NN=C(C)C` here?
Answer: 133 °C

Question: What about the melting point of the same compound?
Answer: -12.5 °C

Question: With `CCCN(CCC)C(C)=O` as the compound, how does the boiling point read?
Answer: 210 °C

Question: For `CN(C)c1cccc(O)c1`, which boiling point is on record?
Answer: 266 °C

Question: What about the melting point of the same compound?
Answer: 86 °C

Question: With `CCC(C)C=O` (configuration not stated) as the compound, how does the melting point read?
Answer: 91 °C

Question: Which melting point does the source give for `CC(C)NCC(O)c1ccc(NS(C)(=O)=O)cc1` (configuration not stated) here?
Answer: 207 °C

Question: Which melting point does the source give for `O=C(Nc1ccc(Br)cc1)c1cc(Br)ccc1O` here?
Answer: 242 °C

Question: With `Cc1csc(S)n1` as the compound, how does the melting point read?
Answer: 89.3 °C

Question: For `C1CC2CCCC2C1` (configuration not stated), which boiling point is on record?
Answer: 139 °C

Question: With `Cc1cc(Cl)cc2c1C(=O)/C(=C1/Sc3cc(Cl)cc(C)c3C1=O)S2` as the compound, how does the log10 vapour pressure (mmHg) read?
Answer: -13.5

Question: With `COC(=O)c1c[nH]c2ccccc12` as the compound, how does the melting point read?
Answer: 150 °C

Question: For `Cc1cc([N+](=O)[O-])ccc1O`, which melting point is on record?
Answer: 96 °C

Question: With `CC(=O)O[C@@H]1C[C@H](C)CC[C@H]1C(C)C` (racemic) as the compound, how does the boiling point read?
Answer: 228 °C

Question: And the log10 vapour pressure (mmHg)?
Answer: -0.983

Question: Which melting point does the source give for `CCCCC(C#N)(Cn1ccnc1)c1ccccc1` (configuration not stated) here?
Answer: 161 °C

Question: For `CCC(C)=CCl`, which boiling point is on record?
Answer: 96.5 °C

Question: For `CCC(CO)O[N+](=O)[O-]` (configuration not stated), which log10 Henry constant (atm·m³/mol) is on record?
Answer: -6.78

Question: With `O=CC1CCCO1` (configuration not stated) as the compound, how does the boiling point read?
Answer: 142 °C

Question: Which melting point does the source give for `C#C[C@]1(O)C=C[C@H]2[C@@H]3CCC4=CC(=O)CC[C@@H]4[C@H]3CC[C@@]21CC` here?
Answer: 198 °C

Question: Which melting point does the source give for `CC(C)(Oc1ccc(C2CC2(Cl)Cl)cc1)C(=O)O` (configuration not stated) here?
Answer: 115 °C

Question: For `O=C(O)CC(CC(=O)O)C(=O)O`, which melting point is on record?
Answer: 166 °C

Question: With `CC(C)=CC(C)C` as the compound, how does the boiling point read?
Answer: 83.4 °C

Question: What about the melting point of the same compound?
Answer: -128 °C

Question: What does the source list for `COc1ccccc1C`?
Answer: boiling point: 171 °C; melting point: -34.1 °C

Question: For `CCCCCC(O)c1ccc(O)c(O)c1` (configuration not stated), which melting point is on record?
Answer: 109 °C

Question: What does the source list for `c1ccc(-c2cc(-c3ccccc3)cc(-c3ccccc3)c2)cc1`?
Answer: boiling point: 462 °C; melting point: 176 °C

Question: Which results are given for `C=C(C)C(=O)OCC`?
Answer: boiling point: 117 °C; log10 vapour pressure (mmHg): 1.31

Question: With `O=C(O)Cc1cc(O)ccc1O` as the compound, how does the melting point read?
Answer: 153 °C

Question: For `CC(=O)Nc1c(I)c(NC(C)=O)c(I)c(C(=O)[O-])c1I.[Na+]`, which melting point is on record?
Answer: 261 °C

Question: Which results are given for `c1ccsc1`?
Answer: boiling point: 84 °C; log10 Henry constant (atm·m³/mol): -2.64; log10 vapour pressure (mmHg): 1.9; melting point: -39.4 °C; ready biodegradability: not readily biodegradable

Question: For `C[C@@H](Cc1ccccc1)NCCC(c1ccccc1)c1ccccc1`, which melting point is on record?
Answer: 36.5 °C

Question: Which boiling point does the source give for `Cc1ccc(NCc2ccccc2)cc1` here?
Answer: 319 °C

Question: What about the melting point of the same compound?
Answer: 19.5 °C

Question: With `COc1ccc(CC#N)cc1OC` as the compound, how does the melting point read?
Answer: 62.8 °C

Question: Which boiling point does the source give for `Brc1ccc(Br)c(Br)c1` here?
Answer: 275 °C

Question: What about the melting point of the same compound?
Answer: 44.5 °C

Question: Which results are given for `CCCC(C)C(O)CC` (configuration not stated)?
Answer: boiling point: 170 °C; melting point: -123 °C

Question: For `O=[N+]([O-])c1ccccc1CCO`, which boiling point is on record?
Answer: 267 °C

Question: What about the melting point of the same compound?
Answer: 2 °C

Question: For `CC1=CCC2C(C)(C)CCC[C@]2(C)[C@@]12CC[C@](C)(CC(=O)O)O2` (some centres not stated), which melting point is on record?
Answer: 100 °C

Question: Which boiling point does the source give for `Fc1c(F)c(F)c(F)c(F)c1F` here?
Answer: 80.2 °C

Question: What about the log10 vapour pressure (mmHg) of the same compound?
Answer: 1.93

Question: What does the source list for `CC(C)C1CCCCC1`?
Answer: boiling point: 155 °C; log10 vapour pressure (mmHg): 0.681; melting point: -89.4 °C

Question: With `CCCCCCCCCCCCCc1ccccc1` as the compound, how does the boiling point read?
Answer: 346 °C

Question: And the log10 vapour pressure (mmHg)?
Answer: -4.9

Question: And the melting point?
Answer: 10 °C

Question: With `COc1cc(CO)ccc1O` as the compound, how does the melting point read?
Answer: 115 °C

Question: Which boiling point does the source give for `CC(=O)CCC(C)C` here?
Answer: 144 °C

Question: What about the log10 vapour pressure (mmHg) of the same compound?
Answer: 0.761

Question: What about the melting point of the same compound?
Answer: -74 °C

Question: Which log10 Koa does the source give for `Clc1ccc(Cl)c2c(Cl)cccc12` here?
Answer: 7.56

Question: Which results are given for `CN1C(=O)CCC1=O`?
Answer: boiling point: 234 °C; melting point: 71 °C

Question: Which results are given for `Cc1cc(C)c2ccccc2n1`?
Answer: boiling point: 265 °C; log10 vapour pressure (mmHg): -2.1

Question: With `CCCCCC#CCO` as the compound, how does the melting point read?
Answer: -18 °C

Question: What does the source list for `CC(=O)CC(C)(C)O`?
Answer: boiling point: 168 °C; log10 vapour pressure (mmHg): 0.233; melting point: -44 °C; ready biodegradability: readily biodegradable

Question: With `CCCC(C)C(=O)O` (configuration not stated) as the compound, how does the boiling point read?
Answer: 196 °C

Question: What does the source list for `Clc1cc2oc3c(Cl)cc(Cl)c(Cl)c3c2cc1Cl`?
Answer: log10 vapour pressure (mmHg): -8.82; melting point: 237 °C

Question: With `CC(C)N=C=O` as the compound, how does the boiling point read?
Answer: 74.5 °C

Question: Which boiling point does the source give for `Cc1ccc(C(C)C)c(O)c1` here?
Answer: 232 °C

Question: What about the log10 vapour pressure (mmHg) of the same compound?
Answer: -2.66

Question: What about the melting point of the same compound?
Answer: 51.5 °C

Question: And the ready biodegradability?
Answer: not readily biodegradable

Question: Which melting point does the source give for `C[C@]12CC[C@H](O)C[C@@H]1CC[C@@H]1[C@@H]2[C@@H](O)C[C@@]2(C)[C@H]1CC[C@]2(O)C(=O)CO` here?
Answer: 244 °C

Question: Which results are given for `Cc1ccc(C)c(O)c1`?
Answer: boiling point: 211 °C; log10 Henry constant (atm·m³/mol): -5.95; log10 vapour pressure (mmHg): -0.807; melting point: 74.8 °C; ready biodegradability: not readily biodegradable

Question: With `CCOc1ccccc1C(=O)O` as the compound, how does the melting point read?
Answer: 20.7 °C

Question: With `CCCCCCCCCOC(=O)c1ccc(N)cc1` as the compound, how does the melting point read?
Answer: 69 °C

Question: With `Clc1cccc(Cl)c1` as the compound, how does the boiling point read?
Answer: 173 °C

Question: What about the log10 Henry constant (atm·m³/mol) of the same compound?
Answer: -2.58

Question: What about the log10 Koa of the same compound?
Answer: 4.12

Question: What about the log10 Koc (L/kg) of the same compound?
Answer: 2.58

Question: And the log10 vapour pressure (mmHg)?
Answer: 0.332

Question: And the melting point?
Answer: -24.8 °C

Question: What about the ready biodegradability of the same compound?
Answer: not readily biodegradable

Question: Which results are given for `O=C(O)COc1ccccc1`?
Answer: boiling point: 285 °C; melting point: 98.5 °C

Question: For `CCOP(=O)(OCC)Oc1ccc([N+](=O)[O-])cc1`, which log10 vapour pressure (mmHg) is on record?
Answer: -5.96

Question: And the melting point?
Answer: 300 °C

Question: With `OC(O)C(Br)(Br)Br` as the compound, how does the melting point read?
Answer: 53.5 °C

Question: With `NS(=O)(=O)c1ccc(S(=O)(=O)CCCCO)cc1` as the compound, how does the melting point read?
Answer: 134 °C

Question: What does the source list for `OCCO`?
Answer: boiling point: 197 °C; log10 Henry constant (atm·m³/mol): -7.22; log10 vapour pressure (mmHg): -1.04; ready biodegradability: readily biodegradable

Question: With `COc1cc(OC)c2ccc(=O)oc2c1` as the compound, how does the melting point read?
Answer: 149 °C

Question: For `CC(Br)C(=O)c1ccccc1` (configuration not stated), which boiling point is on record?
Answer: 248 °C

Question: What does the source list for `COCCOCCO`?
Answer: boiling point: 193 °C; log10 vapour pressure (mmHg): -0.602

Question: For `COc1cccc(NC(=O)N(C)C)c1`, which log10 Koc (L/kg) is on record?
Answer: 1.72

Same assay, conditions: fish

Question: Which log10 BCF does the source give for `BrCCBr` here?
Answer: 1.18

Question: And the log10 biotransformation half-life (days)?
Answer: -0.83

Question: Which log10 BCF does the source give for `O=[N+]([O-])c1cccc(S(=O)(=O)[O][Na])c1` here?
Answer: 0.7

Question: For `c1ccsc1`, which log10 BCF is on record?
Answer: 0.95

Question: What about the log10 biotransformation half-life (days) of the same compound?
Answer: -0.82

Question: For `Brc1ccc(Br)c(Br)c1`, which log10 BCF is on record?
Answer: 3.63

Question: With `Clc1cccc(Cl)c1` as the compound, how does the log10 BCF read?
Answer: 2.33

Question: And the log10 biotransformation half-life (days)?
Answer: -0.21
